Test results reported in ChEMBL document CHEMBL1135322, “Glutathione-like tripeptides as inhibitors of glutathionylspermidine synthetase. Part 1: Substitution of the glycine carboxylic acid group” (Bioorg Med Chem Lett, 2002).
Several values for one entry are separate records, joined by “and”; a condition that tells them apart may be missing. Identical values can stand only once. Where a SMILES comes first, the peptide text is derived from it.

B1: Glutathionylspermidine synthase (Crithidia fasciculata), P90518 (protein)
chain: MSSLPHNHHYETHHRGTAEVPFDELIGVTPDGVPVISNGNEAHFSNLESITAACLPLSSFERKAPCKQPYRKMGVKWQCVEFVRRYLASRKAVWMTSLCTAEEVWREENLFVDVRDGRPVEVVRTPNKSTGPAPAVADIVVWGEGPETPFGHVAIVTEVCASCVRVAEQNQGFEKWPEDVPFSREIAMRTTESGEVELLDEDPLLGWVTVQAPFYNFDDGDLADSFRLVVGQGQILRQPFPKHVDVPWLNTGEECDTILKHSLVVDGNMGEGAHAEEGDVPGAFYFLDYDMFCRLGRAASSLHRIAMAATAKVLEDPESTHLLEHYFGVPPEIQPLLRRSWEMTPPMGGRFDFGYDGKNVVMLEYNCDSSGALLECCNTQEKMARFYGVSQGTSTGSFLGAKCVTYFQRLLTNEKVCPQHRLIHFMIDEDDEERYTARCMMGFAEQAGFRTKLCVKLVNFRYRDGPPSNAAPLATPCDHPTIVDGEDEEVLMVWKTWSWDTVLHQYHSQRSSSDAVNTPTLSDILLNNNIRVLEPLWKAVTGSKAILPFMHALAPDHEHMLAASFLPTREIISRHYISKPVNGRAGQNIMMYDPVTSPTELEGAPQQDICEALSQNASARSLLNGSPLPLSQSVDQTNECSPGKFFDSVLVYQQRLFLKKFDGKYFPIFCGWMVGDEFGGVVVREDTSKITKLSSMVVPARVVRDNVPLGVSYSDEGET

Legend:
[1] = biological target: T1, Glutathionylspermidine synthase (Crithidia fasciculata, UniProt P90518); assay: Concentration required for the inhibition of enzyme Glutathionylspermidine Synthetase wild-type enzyme
T1 sequence (P90518 whole entry): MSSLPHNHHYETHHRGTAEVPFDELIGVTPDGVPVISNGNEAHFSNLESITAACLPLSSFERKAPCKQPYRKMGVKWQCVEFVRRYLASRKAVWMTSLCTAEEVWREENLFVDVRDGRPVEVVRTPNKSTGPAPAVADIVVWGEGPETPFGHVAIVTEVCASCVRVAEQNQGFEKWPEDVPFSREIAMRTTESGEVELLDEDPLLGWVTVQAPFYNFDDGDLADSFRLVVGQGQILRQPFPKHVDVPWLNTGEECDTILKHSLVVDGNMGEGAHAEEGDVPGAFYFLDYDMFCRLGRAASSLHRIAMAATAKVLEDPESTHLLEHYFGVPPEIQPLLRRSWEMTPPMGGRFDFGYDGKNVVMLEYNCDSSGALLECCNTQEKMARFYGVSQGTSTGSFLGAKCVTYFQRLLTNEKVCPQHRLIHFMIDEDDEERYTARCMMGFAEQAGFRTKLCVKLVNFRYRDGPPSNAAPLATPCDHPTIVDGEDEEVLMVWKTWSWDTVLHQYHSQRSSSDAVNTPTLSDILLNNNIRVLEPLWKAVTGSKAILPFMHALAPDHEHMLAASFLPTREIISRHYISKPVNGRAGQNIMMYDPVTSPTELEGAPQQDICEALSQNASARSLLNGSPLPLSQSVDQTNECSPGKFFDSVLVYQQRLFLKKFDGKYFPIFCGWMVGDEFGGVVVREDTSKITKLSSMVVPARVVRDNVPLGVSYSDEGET

[2] = biological target: T2, Glutathionylspermidine synthase (Crithidia fasciculata) (UniProt P90518); assay: Compound was tested for percent inhibition towards the enzyme Glutathionylspermidine Synthetase wild-type enzyme and compared with 0.5 mM GSH
T2 sequence (whole entry): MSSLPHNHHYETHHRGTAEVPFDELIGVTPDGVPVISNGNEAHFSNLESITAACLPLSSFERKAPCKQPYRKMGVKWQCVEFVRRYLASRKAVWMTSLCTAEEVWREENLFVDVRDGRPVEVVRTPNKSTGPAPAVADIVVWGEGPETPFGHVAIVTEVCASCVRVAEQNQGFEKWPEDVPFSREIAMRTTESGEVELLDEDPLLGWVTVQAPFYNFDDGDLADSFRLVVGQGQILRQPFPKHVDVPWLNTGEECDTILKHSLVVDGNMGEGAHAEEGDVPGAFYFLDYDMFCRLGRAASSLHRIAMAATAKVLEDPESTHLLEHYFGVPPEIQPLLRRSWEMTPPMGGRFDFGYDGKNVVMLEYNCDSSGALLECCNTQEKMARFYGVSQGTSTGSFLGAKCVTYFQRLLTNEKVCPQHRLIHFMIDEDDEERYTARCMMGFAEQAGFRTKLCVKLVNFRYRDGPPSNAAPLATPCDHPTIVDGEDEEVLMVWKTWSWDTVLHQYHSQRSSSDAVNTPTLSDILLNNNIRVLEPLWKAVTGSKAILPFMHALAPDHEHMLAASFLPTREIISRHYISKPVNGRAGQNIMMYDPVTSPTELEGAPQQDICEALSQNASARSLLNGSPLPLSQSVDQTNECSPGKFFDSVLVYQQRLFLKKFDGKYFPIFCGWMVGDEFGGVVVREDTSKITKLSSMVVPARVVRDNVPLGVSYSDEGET

[3] = biological target: T1, Glutathionylspermidine synthase; assay: Inhibition constant was evaluated against enzyme Glutathionylspermidine Synthetase wild-type enzyme
[4] = biological target: T2, Glutathionylspermidine synthase (Crithidia fasciculata); assay: Compound was tested for substrate activity towards the enzyme Glutathionylspermidine Synthetase wild-type enzyme and compared with 0.5 mM GSH
[5] = biological target: T2, Glutathionylspermidine synthase (Crithidia fasciculata); assay: (§1) Inhibitory activity against amidase free Glutathionylspermidine Synthetase mutant (C79A); conditions: concentration not given here
[6] = biological target: T2, Glutathionylspermidine synthase (Crithidia fasciculata); assay: (§2) Substrate activity against amidase free Glutathionylspermidine Synthetase mutant (C79A)
[7] = biological target: T3, Glutathionylspermidine synthase (Crithidia fasciculata, UniProt P90518, C79A); assay: as §1
T3 sequence (P90518 whole entry C79A): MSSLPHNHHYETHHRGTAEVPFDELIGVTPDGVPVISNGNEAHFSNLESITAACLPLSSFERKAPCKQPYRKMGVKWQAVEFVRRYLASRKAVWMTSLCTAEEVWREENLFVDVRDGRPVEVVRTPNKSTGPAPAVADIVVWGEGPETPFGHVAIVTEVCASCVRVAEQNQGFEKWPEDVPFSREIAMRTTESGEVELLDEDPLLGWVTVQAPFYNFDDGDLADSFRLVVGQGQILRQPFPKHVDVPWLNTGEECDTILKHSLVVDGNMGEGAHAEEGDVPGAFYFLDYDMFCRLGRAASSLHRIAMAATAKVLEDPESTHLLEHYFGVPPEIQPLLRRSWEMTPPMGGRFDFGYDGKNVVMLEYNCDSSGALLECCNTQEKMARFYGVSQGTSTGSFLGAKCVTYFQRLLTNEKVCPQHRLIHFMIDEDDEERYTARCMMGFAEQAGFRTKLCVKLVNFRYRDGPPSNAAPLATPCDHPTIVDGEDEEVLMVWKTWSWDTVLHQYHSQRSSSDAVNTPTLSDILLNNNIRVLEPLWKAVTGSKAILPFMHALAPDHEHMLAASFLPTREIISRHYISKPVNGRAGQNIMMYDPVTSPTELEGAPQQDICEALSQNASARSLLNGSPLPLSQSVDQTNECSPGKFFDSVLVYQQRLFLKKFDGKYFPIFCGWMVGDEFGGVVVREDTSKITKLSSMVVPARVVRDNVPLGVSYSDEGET

[8] = biological target: T3, Glutathionylspermidine synthase; assay: Inhibitory constant against amidase free Glutathionylspermidine Synthetase mutant (C79A)
[9] = biological target: T3, Glutathionylspermidine synthase; assay: Inhibitory constant against amidase free Glutathionylspermidine Synthetase mutant (C79A); NA denotes not applicable
[10] = Half-life was determined; format: ADME; conditions: human
[11] = biological target: T1, Glutathionylspermidine synthase; assay: Concentration required for the inhibition of enzyme Glutathionylspermidine Synthetase wild-type enzyme; NA denotes not applicable
[12] = biological target: T3, Glutathionylspermidine synthase; assay: Inhibitory activity against amidase free Glutathionylspermidine Synthetase mutant (C79A); NA denotes not applicable
[13] = biological target: T1, Glutathionylspermidine synthase; assay: Inhibition constant was evaluated against enzyme Glutathionylspermidine Synthetase wild-type enzyme; NA denotes not applicable
[14] = biological target: T1, Glutathionylspermidine synthase; assay: Inhibition constant was evaluated against enzyme Glutathionylspermidine Synthetase; NA denotes not applicable
[15] = substrate: CC(C)C[C@H](NC(=O)CC[C@H](N)C(=O)O)C(=O)NCc1nn[nH]n1; assay: Michaelis-Menten constant at the concentration of < 0.4 mM; conditions: Crithidia fasciculata
[16] = substrate: CC(C)C[C@H](NC(=O)CC[C@H](N)C(=O)O)C(=O)NCC(N)=O; assay: as §2; conditions: Crithidia fasciculata
[17] = substrate: CC(C)C[C@H](NC(=O)CC[C@H](N)C(=O)O)C(=O)NCC(=O)O; assay: Compound was tested for substrate activity (Apparent Km) towards the enzyme Glutathionylspermidine Synthetase wild-type enzyme and compared with 0.5 mM GSH; conditions: Crithidia fasciculata

| Molecule | IC50 [1] | inhibition [2] | Activity [4] | inhibition [5] | Activity [6] | also measured |
| --- | --- | --- | --- | --- | --- | --- |
| CC(C)C[C@H](NC(=O)CC[C@H](N)C(=O)O)C(=O)NCP(=O)(O)O | 60 µM | 86% | 0% | – | – | Ki [3]: 60 µM |
| CC(C)C[C@H](NC(=O)CC[C@H](N)C(=O)O)C(=O)NCc1nnn[nH]1 | 138 µM | – | – | – | – | – |
| Cc1ccc(S(=O)(=O)NC(=O)CNC(=O)[C@H](CC(C)C)NC(=O)CC[C@H](N)C(=O)O)cc1 | 2 µM | 2% | 2% | – | – | – |
| CC(C)C[C@H](NC(=O)CC[C@H](N)C(=O)O)C(=O)NCB(O)O | 17.2 µM | 95% | 1% | – | – | Ki [3]: 81 µM and 18 µM |
| CC(C)C[C@H](NC(=O)CC[C@H](N)C(=O)O)C(=O)NCc1nn[nH]n1 | – | 58% | 0% | – | – | – |
| CCCCOC(=O)CNC(=O)[C@H](CC(C)C)NC(=O)CC[C@H](N)C(=O)O | – | 0% | 102% | 26% | 3% | – |
| CC(C)C[C@H](NC(=O)CC[C@H](N)C(=O)O)C(=O)NCC(=O)NO (HELM PEPTIDE1{[gGlu].L.G.[ON[*:1]]}$$$$V2.0) | – | 76% | 44% | 98% | 1% | IC50 [7]: 3.2 µM; Ki [8]: 2.5 µM; Ki [9]: Not Active |
| CC(C)C[C@H](NC(=O)CC[C@H](N)C(=O)O)C(=O)NCC(N)=O (HELM PEPTIDE1{[gGlu].L.G.[am]}$$$$V2.0) | – | 0% | 93% | 89% | 22% | IC50 [7]: 105 µM; Ki [9]: Not Active |
| CC(C)C[C@H](NC(=O)CC[C@H](N)C(=O)O)C(=O)NCC(=O)O (HELM PEPTIDE1{[gGlu].L.G}$$$$V2.0) | – | 0% | 104% | 0% | 125% | half-life [10]: 1 h; IC50 [11]: Not Active; IC50 [12]: Not Active; Ki [13]: Not Active; Ki [14]: Not Active |
| B1 | – | – | – | – | – | Km [15]: 34 µM; Km [16]: 245 µM; Vmax [16]: 15%; Km [17]: 34 µM |
